Results from US8293218B2, “Skin care compositions comprising substituted monoamines” (Conopco, Inc., priority 2010, dated 2012).

Each molecule was assayed on Melanoderm tissue equivalent model MEL-300 containing melanocytes obtained from dark skin individuals (assay: Melanoderm tissue equivalent model MEL-300, total melanin content (inhibition of melanogenesis)). Settings: Melanocyte, 336 h; 10 μM in maintenance medium, 14 days, total melanin content vs DMSO vehicle control; read-out: Melanoderm (% Reduction at 10 μM).
Format: cell-based
Experimental: Melanoderm tissue equivalent model MEL-300 (MatTek: Ashland, Mass.) containing melanocytes obtained from dark skin individuals were cultured as per supplier instructions. Components were added to the maintenance medium phase (no topical treatments) at a final concentration of 10 μM for 14 days at which time the experiment was terminated and the tissues assessed for melanin content. Medium and treatments were changed three times per week. DMSO was utilized as the vehicle control and all treatments were performed at least in duplicate.
For quantification of total melanin, each Melanoderm was placed into an individual Eppendorf tube (2 mL) into which 250 μL of Solvable™ tissue solubilizer (Packard Bioscience Co., Cat #6NE9100) was added. Each tube was vortexed and incubated at 60° C. for 18 hours. Each sample was then centrifuged (5-minutes at 13,000 RPMs) to remove any particulates. 100 or 200 μL of supernatant were transferred to a 96 well microtiter plate and the absorbance read at 490 nm. Total melanin content was calculated from a standard curve using synthetic melanin (Sigma Cat #M8631). Data was analyzed for significance using the t-test in Microsoft Excel to generate p-values (p-values less than 0.01 represent 99% confidence, p values of 0.05 represent 95% confidence both of which are statistically significant).

Compared with `c1ccc(CCNCC2CCCCC2)cc1` [Compound 3f, N-(cyclohexylmethyl)-2-phenylethanamine], `Cc1ccc(CNCCc2ccccc2)cc1C` [Compound 3e, N-(3,4-dimethylbenzyl)-2-phenylethanamine] is lower in inhibition at 10 µM: 69.5% for the first, 64.5% for the second.

First: COc1ccc(CNCCC(C)C)cc1OC [Compound 9, N-(3,4-dimethoxybenzyl)-3-methylbutan-1-amine]
Second: COc1ccc(CNCCc2ccccc2)cc1OC [Compound 3a, N-(3,4-dimethoxybenzyl)-2-phenylethanamine]
The inhibition at 10 µM of the first is lower: 1.9% for the first, 40.3% for the second.

Compared with `c1ccc(CCNCc2cccc(Oc3ccccc3)c2)cc1` [Compound 3c, N-(3-phenoxybenzyl)-2-phenylethanamine], `COc1ccc(CNCCc2ccccc2)cc1` [Compound 3b, N-(4-methoxybenzyl)-2-phenylethanamine] is lower in inhibition at 10 µM: 68.9% for the first, 54.4% for the second.

First: COc1ccc(OC)c(CNCCc2ccccc2)c1 [Compound 3d, N-(2,5-dimethoxybenzyl)-2-phenylethanamine]
Second: COc1cc(CNCCc2ccccc2)cc(OC)c1 [Compound 3g, N-(3,5-dimethoxybenzyl)-2-phenylethanamine]
The inhibition at 10 µM of the first is higher: 60.3% for the first, 51.6% for the second.

First: COc1ccc(CCNCCc2ccccc2)cc1OC [Compound 3h, 2-(3,4-dimethoxyphenyl)-N-phenethylethanamine]
Second: COc1ccc(CN(C)CCc2ccccc2)cc1OC [Compound 7, N-(3,4-dimethoxybenzyl)-N-methyl-2-phenylethanamine]
The inhibition at 10 µM of the first is higher: 53.1% for the first, 44.4% for the second.
